Laboratory results: patent US20240208984A1, “BIVALENT LIGANDS TO UNDERSTAND DIMERIZATION OF THE MU OPIOID RECEPTOR AND THE CHEMOKINE RECEPTOR CCR5 IN NEUROLOGICAL DISORDERS” (priority 2021, published 2024)
Read-outs that look alike come from different tables or passages of the source. Marks after values point to notes of the source that are not given here.

How the values were obtained:
CCR5 [1] = target: T1, CCR5 (Homo sapiens (Human), UniProt P51681); conditions: data reported before, shown for comparison; read-out: Inhibition of CCL5-stimulated Intracellular Ca2+ Mobilization IC50; cited from earlier work
T1 sequence (P51681 whole entry): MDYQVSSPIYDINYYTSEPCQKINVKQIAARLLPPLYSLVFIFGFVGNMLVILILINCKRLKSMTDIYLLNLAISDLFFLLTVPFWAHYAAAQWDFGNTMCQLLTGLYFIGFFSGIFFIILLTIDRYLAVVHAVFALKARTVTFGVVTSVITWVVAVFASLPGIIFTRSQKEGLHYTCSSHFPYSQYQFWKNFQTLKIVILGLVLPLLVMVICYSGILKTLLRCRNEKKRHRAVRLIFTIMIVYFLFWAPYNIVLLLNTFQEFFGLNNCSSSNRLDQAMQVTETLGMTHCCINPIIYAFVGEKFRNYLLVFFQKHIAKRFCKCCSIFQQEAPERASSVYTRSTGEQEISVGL

GHOST CCR5 cells = conditions: GHOST CCR5 cells; XTT; triplicate
Method: These compounds were concurrently assessed for cytotoxicity in GHOST-CCR5-expressing cells using the XTT assay. […] The therapeutic index (TI, TC50/EC50) values were calculated if applicable.
(§1) 100 μL of GHOST CCR5 cells at a density of 1×10^4 cells/well in 10% complete DMEM (10% FBS with 1% L-glutamine and 1% Penicillin/Streptomycin) media were plated in a 96-well flat bottom plate and incubated for 24 h at 37° C./5% CO2. Following the incubation, 100 μL of each compound at 6 concentrations were added in triplicate to both efficacy and toxicity plates followed by 100 μL of HIV-1BaL at a pre-determined titer to the plates being evaluated for efficacy and 50 μL of complete DMEM to the plates being evaluated for cytotoxicity. The cultures were incubated for 6 days at 37° C./5% CO2. Following the incubation, 50 μL of cell culture supernatant was removed from the wells of the efficacy plates for subsequent evaluation of virus content by reverse transcriptase activity assay. The toxicity plates being evaluated for cytotoxicity were stained with XTT.
TC50 values for the tested compounds were derived by measuring the reduction of the tetrazolium dye XTT (2,3-bis(2-methoxy-4-nitro-5-sulfophenyl)-5-[(phenylamino)carbonyl]-2H-tetrazolium hydroxide). XTT in metabolically active cells is metabolized by the mitochondrial enzyme NADPH oxidase to a soluble formazan product. XTT solution was prepared as a stock of 1 mg/mL in RPMI-1640 without additives. Phenazine methosulfate (PMS) solution was prepared at 0.15 mg/mL in DPBS and stored in the dark at −20° C. XTT/PMS stock was prepared immediately before use by adding 40 μL of PMS per mL of XTT solution. 50 μL of XTT/PMS was added to each well of the plate and the plate was incubated for 4 h at 37° C. The plates were sealed and inverted several times to mix the soluble formazan product and the plate was read at 450 nm (650 nm reference wavelength) with a Molecular Devices SPECTRAMAX® Plus 384 96 well format spectrophotometer.

mouse mu opioid receptor [2] = target: T2, mouse mu opioid receptor (Mus musculus (Mouse), UniProt P42866); conditions: read-out: Inhibition of DAMGO Induced Ca2+ Mobilization IC50; data reported before, shown for comparison; cited from earlier work
T2 sequence (P42866 whole entry, looked up): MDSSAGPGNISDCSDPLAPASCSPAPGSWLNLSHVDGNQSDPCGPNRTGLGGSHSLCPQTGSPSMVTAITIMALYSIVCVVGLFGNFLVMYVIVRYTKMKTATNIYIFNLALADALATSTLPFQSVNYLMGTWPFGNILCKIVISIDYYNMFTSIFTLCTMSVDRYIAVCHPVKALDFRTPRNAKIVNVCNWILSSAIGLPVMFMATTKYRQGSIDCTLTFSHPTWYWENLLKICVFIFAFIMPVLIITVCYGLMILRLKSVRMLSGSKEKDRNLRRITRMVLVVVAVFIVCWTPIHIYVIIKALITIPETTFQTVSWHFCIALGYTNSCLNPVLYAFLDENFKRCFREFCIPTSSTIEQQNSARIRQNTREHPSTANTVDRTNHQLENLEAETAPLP

HIV-1BaL = test: Anti-HIV-1BaL activity (reverse transcriptase activity) in GHOST CCR5 cells; conditions: for EC50: read-out: Inhibition of HIV-1BaL EC50, RT activity, triplicate
Method: This assay was run in GHOST-CCR5 cells using the CCR5-tropic viral strain HIV-1BaL.
as §1
RT activity (EC50 values) was measured using standard radioactivity incorporation polymerization assay. 1 μL of titrated thymidine triphosphate (TTP) at 1 Ci/mL was used per enzyme reaction. Poly rA and oligo dT were prepared at concentrations of 0.5 mg/mL and 1.7 Units/mL, respectively, from a stock solution which was kept at −20° C. The RT reaction buffer was prepared fresh and consists of 125 μL of 1M EGTA, 125 μL of dH2O, 125 μL of 20% Triton X-100, 50 μL of 1M Tris (pH 7.4), 50 μL of 1M DTT, and 40 μL of 1 M MgCl2. For each reaction, 1 μL of TTP, 4 μL of dH2O, 2.5 μL of rAdT and 2.5 μL of reaction buffer were mixed. 10 μL of this reaction mixture was placed in a round bottom microtiter plate with 15 μL of virus containing supernatant. The plate was incubated at 37° C. in a humidified incubator for 60-90 min. […] The dried filtermat was placed in a plastic sleeve and 4 mL of Opti-Fluor O (Perkin Elmer, catalog #1205-440) scintillation fluid was added to each sleeve. […] TC50 values for the tested compounds were derived by measuring the reduction of the tetrazolium dye XTT (2,3-bis(2-methoxy-4-nitro-5-sulfophenyl)-5-[(phenylamino)carbonyl]-2H-tetrazolium hydroxide). XTT in metabolically active cells is metabolized by the mitochondrial enzyme NADPH oxidase to a soluble formazan product. XTT solution was prepared as a stock of 1 mg/mL in RPMI-1640 without additives. Phenazine methosulfate (PMS) solution was prepared at 0.15 mg/mL in DPBS and stored in the dark at −20° C. XTT/PMS stock was prepared immediately before use by adding 40 μL of PMS per mL of XTT solution. […] The plates were sealed and inverted several times to mix the soluble formazan product and the plate was read at 450 nm (650 nm reference wavelength) with a Molecular Devices SPECTRAMAX® Plus 384 96 well format spectrophotometer.

mouse MOR [3] = target: T3, mouse MOR (Mus musculus (Mouse), UniProt P42866); conditions: [35S]GTPγS binding; data reported before, shown for comparison; cited from earlier work
T3 sequence (P42866 whole entry, looked up): as above

[4] = target: T4, Rhesus macaque chemokine CCR5 receptors (Macaca mulatta (Rhesus macaque), UniProt P61813); conditions: data reported before; similar assay with minor differences; read-out: CCR5 Radioligand Binding Affinity Ki; cited from earlier work
[5] = tested on: HIV-1BaL Env-pseudotyped Luc-expressing virus; test: HIV-1 infection assay in PHA-stimulated PBMC cells; type: cell-based; conditions: PHA-stimulated PBMCs; 10 nM
Method: Peripheral blood mononuclear cells (PBMCs) include large numbers of CCR5-expressing leukocytes and are susceptible to infection by R5-tropic HIV-1 strains.
In a 24-well plate, PHA-stimulated PBMC cells from healthy donors were infected by incubation with the HIV-1BaL.01 env-pseudotyped Luc virus. A concentration of HIV-1 p24 50 pg/106 cells was used, and uninfected cells served as a negative control. […] After approximately 18-20 h, the supernatant was removed and stored at −80° C., cells were rinsed twice with PBS and lysed. The lysate was subsequently tested for the relative Tat protein expression by using a luciferase assay system (Promega). Luciferase activity was measured using a PHERASTAR® FS plate reader (BMG Labtech).

mouse MOR [6] = target: T3, mouse MOR; test: In vitro MOR radioligand binding assay; conditions: [3H]naloxone radioligand; mMOR-CHO; mean ± SEM; read-out: MOR Radioligand Binding Affinity Ki
Method: In vitro MOR radioligand binding studies. All bivalent ligands were first tested for their binding affinity to the MOR. The competitive radioligand binding assay was conducted using monoclonal mouse MOR expressed in CHO cell lines (mMOR-CHO).
In vitro MOR radioligand binding assay The competition binding assay was conducted using monoclonal mouse MOR expressed in Chinese hamster ovary (CHO) cell lines. In this assay, 30 μg of membrane protein was incubated with the radioligand [^3H] naloxone in the presence of different concentrations of tested compounds in TME buffer (50 mM Tris, 3 mM MgCl2, and 0.2 mM EGTA, pH 7.4) for 1.5 h at 30° C. The bound radioligand was separated by filtration using a Brandel harvester. […] The IC50 values were determined and converted to Ki values using the Cheng-Prusoff equation: Ki=IC50/[1+([L*]/KD)], where [L*] is the concentration of the radioligand and KD is the KD of the radioligand was determined.73

CCR5 [7] = target: T1, CCR5; test: Calcium mobilization assay in HOS-CCR5 cells; type: cell-based
Method: We then conducted the calcium mobilization assay to further test both the agonist and antagonist properties of the newly synthesized compounds in the HOS-CCR5 (stably transfected for the expression of CCR5) cells using our reported protocol, as calcium mobilization is associated with the activation of CCR5. Prior to the assay, the HOS-CCR5 cells were transiently transfected with a Gqi5 to boost calcium signaling levels.
In the antagonism assay, these compounds were assessed for their ability to inhibit CCL5-stimulated Ca^2+ mobilization.
HOS-CCR5 cells were transfected with Gqi5 pcDNA16 using Lipofectamine 2000 (Invitrogen) according to the manufacturer's recommended procedure and maintained in RPMI 1640 supplemented with 10% fetal bovine serum, 100 μg/mL penicillin, 100 μg/mL streptomycin, and 1 mg/mL G418 at 37° C. and 5% C02. 48 h after transfection, a total of 2,500,000 cells were spun down and brought back up in 8 mL of 50:1 HBSS: HEPES assay buffer. Cells were then plated at 25,000 cells per well into a clear bottom, black 96-well plate (Greiner Bio-one) and 50 μL of Fluo4 loading buffer [40 μL of 2 μM Fluo4-AM (Invitrogen), 100 μL of 2.5 mM probenecid, in 5 mL of assay buffer] was added to bring the volume up to 130 μL. After incubating for 45 min, 50 μL of varying concentrations of tested compounds were added and the plate was incubated for an additional 15 min. Plates were then read on a FlexStation3 microplate reader (Molecular Devices) at 494/516 ex/em for a total of 120 s. After 16 s of reading, 20 μL of 200 nM CCL5 (Biosource) in assay buffer, or assay buffer alone, was added to the wells to bring the total volume up to 200 μL. The changes in calcium mobilization were monitored and peak height values were obtained using SoftMaxPro software (Molecular Devices). Non-linear regression curves and IC50 values were generated using GraphPad Prism 8.0.1 (GraphPad Software, San Diego, CA). All experiments were repeated at least three times.

[8] = target: T4, Rhesus macaque chemokine CCR5 receptors; test: In vitro CCR5 radioligand binding assay; conditions: [125I]MIP-1α radioligand; Chem-1 cells; Cheng-Prusoff; mean ± SEM; read-out: CCR5 Radioligand Binding Affinity Ki
Method: In vitro CCR5 radioligand binding studies. To verify the binding affinity of the bivalent ligands to the CCR5, the competitive radioligand binding assay was conducted in recombinant rhesus macaque CCR5-expressing Chem-1 cells, and macrophage inflammatory protein 1 beta (MIP-1β) was used as a control.
The CCR5 competitive radioligand binding assay was conducted following previously reported studies.74, 75 Rhesus macaque chemokine CCR5 receptors expressed in Chem-1 cells are assayed in modified HEPES buffer (50 mM HEPES, 1 mM CaCl2, 5 mM MgCl2, 0.2% BSA, pH 7.4). 3 μg of membrane protein was incubated with 0.10 nM [^125I]MIP-1α in the presence of six concentrations of tested compounds (10 μM, 1 μM, 0.1 μM, 10 nM, 1 nM, and 0.1 nM) for 90 min at 25° C. Non-specific binding is estimated in the presence of 0.1 μM MIP-1β.

mouse MOR [9] = target: T3, mouse MOR; test: [35S]GTPγS functional assay in mMOR-CHO; type: biochemical; conditions: [35S]GTPγS binding, mean ± SEM
Method: After incubation, the bound radioactive ligand was separated from the free radioligand by filtration through a GF/B glass fiber filter paper and rinsed three times with ice-cold wash buffer (50 mM Tris-HCl, pH 7.2) using the Brandel harvester.

mouse mu opioid receptor [10] = target: T2, mouse mu opioid receptor; test: Calcium mobilization assay in mMOR-CHO cells; type: cell-based
Method: Calcium mobilization assay results in mMOR-CHO cells. The pharmacological profiles of the three newly prepared MOR bivalent ligands were further characterized for their effects on MOR-dependent intracellular Ca^2+ signaling in an mMOR-CHO cell line that was transfected with chimeric Gqi5 protein as previously described.
A CHO cell line stably expressing the mouse mu opioid receptor (mMOR-CHO) was used for this assay. The cells were transfected with Gαqi5 for 4 h and then plated (10,000 cells/well) to black 96-well plates with clear bottoms (Greiner Bio-One). After 24 h of incubation, the culture medium was removed, and the cells were washed with assay buffer (50 mL of HBSS, 1 mL of HEPES, 250 μL of probenecid, 50 μL of 1 mM CaCl2, and 50 μL of 1 mM MgCl2). The tested compounds were dissolved in DMSO as a stock solution for the assay (1 M). For agonist assays, cells were then incubated with 50 μL/well loading buffer (6 mL of assay buffer, 24 μL of Fluo4-AM solution (Invitrogen), and 12 μL of probenecid solution) for 60 min. Following incubation, different concentrations of the tested compounds were added by a FlexStation3 microplate reader (Molecular Devices) and read at ex494/em516. Each concentration was run in triplicate. For antagonism studies, the cells were incubated with the same loading buffer as the agonist assay for 60 min. Then, different concentrations of the tested compounds (20 μL/well) were manually added to each well followed by another 15 min of incubation. […] Each concentration was run in triplicate. The corresponding IC50 value of each compound was calculated by non-linear regression using GraphPad Prism 8.0.1 (GraphPad Software, San Diego, CA).

Cc1nnc(C(C)C)n1C1CC2CCC(C1)N2CC[C@H](NC(=O)C1CCC(F)(F)CC1)c1ccc(NC(=O)COCC(=O)NCCCCCCCNC(=O)COCC(=O)N[C@@H]2CC[C@@]3(O)[C@H]4Cc5ccc(O)c6c5[C@@]3(CCN4CC3CC3)[C@H]2O6)cc1 (stereo partly drawn) [VZMC001]
IC50 (CCR5 [1]): 126 nM | Cytotoxicity TC50 (GHOST CCR5 cells): >100000 nM | IC50 (mouse mu opioid receptor [2]): 40 nM | EC50 (HIV-1BaL): > 100000 nM | % Emax of DAMGO (mouse MOR [3]): 11.7 ± 1.2^b % | Ki [4]: 239 ± 56 nM

C[C@@H](NC(=O)[C@@H](N)Cc1ccc(O)cc1)C(=O)NCC(=O)N(C)[C@@H](Cc1ccccc1)C(=O)NCCO [DAMGO, [D-Ala2-MePhe4-Gly(ol)5]enkephalin, reference compound]
effect of opioid exposure on HIV expression [5]: remarkable increases in HIV expression

CC(C)c1nnc(CCNC(=O)COCC(=O)NCCCCCCCCCNC(=O)COCC(=O)NC2CC[C@@]3(O)[C@H]4Cc5ccc(O)c6c5[C@@]3(CCN4CC3CC3)[C@H]2O6)n1C1CC2CCC(C1)N2CC[C@H](NC(=O)C1CCC(F)(F)CC1)c1ccccc1 (stereo partly drawn) [VZMC017]
Ki (mouse MOR [6]): 11.2 nM | IC50 (CCR5 [7]): 965 ± 30.5 nM | Ki [8]: 5.7 ± 0.23 nM | % Emax of DAMGO (mouse MOR [9]): 4.27 ± 0.66^a % | IC50 (mouse mu opioid receptor [10]): 74.4 nM

CCL5: C—C motif chemokine ligand 5, control CCR5 agonist
EC50 (CCR5 [7]; agonist mode, HOS-CCR5 transfected with Gqi5, read-out: CCR5 Ca2+ mobilization agonism EC50): 155 ± 6.58 nM

CNC(=O)COCC(=O)NCCCNC(=O)COCC(=O)N[C@@H]1CC[C@@]2(O)[C@H]3Cc4ccc(O)c5c4[C@@]2(CCN3CC2CC2)[C@H]1O5 [VZMC002]
Cytotoxicity TC50 (GHOST CCR5 cells): >100000 nM

Cc1nnc(C(C)C)n1C1C[C@H]2CC[C@@H](C1)N2CC[C@H](NC(=O)C1CCC(F)(F)CC1)c1ccccc1 (stereo in doubt) [Maraviroc]
Cytotoxicity TC50 (GHOST CCR5 cells): >500 nM | TI (TC50/EC50) (HIV-1BaL): >28 | EC50 (HIV-1BaL): 18 ± 2 nM

B1: MIP-1β: macrophage inflammatory protein 1 beta, used as a control (protein, UniProt P13236 24-92, looked up)
C-C motif chemokine 4: APMGSDPPTACCFSYTARKLPRNFVVDYYETSSLCSQPAVVFQTKRSKQVCADPSESWVQEYVYDLELN
Ki [8]: 0.056 ± 0.006 nM
